The values below come from US7105518B2, “Thiopyrane-4-ones as DNA protein kinase inhibitors” (priority 2001, dated 2006).

Each structure is given as a SMILES string. pIC50: −log10 of the molar value. Like-named read-outs stand apart in the source and are kept apart here. A value given as a limit tells only on which side of the number the result lay.

In data set [1] the target is T1, ATM protein immunoprecipitated from HeLa cell nuclear extract (Homo sapiens, UniProt Q13315).
T1 construct: ATM protein was immunoprecipitated from HeLa cell nuclear extract; endogenous in cells; host or cells: HeLa cell nuclear extract (immunoprecipitate)
In words: ATM inhibition assay (GSTp53N66 serine 15 phosphorylation, chemiluminescence). Format: biochemical. To be noted: concentrations between 100 and 1 μM. On the procedure: In order to assess the inhibitory action of the compounds against ATM in vitro, the following assay was used to determine IC50 values.
ATM protein was immunoprecipitated from HeLa cell nuclear extract using rabbit polyclonal antisera raised to the C-terminal ˜500 amino-acid residues of the human ATM protein. […] 10 μl of immunoprecipitated ATM in Buffer C (50 mM Hepes, pH 7.4, 6 mM MgCl2, 150 mM NaCl, 0.1 mM sodium orthovanadate, 4 mM MnCl2, 0.1 mM dithiothreitol, 10% glycerol) was added to 32.5 μl of buffer C containing 1 μg of the ATM substrate GSTp53N66 in a V-bottomed 96 well polypropylene plate. The GSTp53N66 substrate is the amino terminal 66 amino acid residues of human wild type p53 fused to glutathione S-transferase. […] Varying concentrations of inhibitor were then added. […] After 10 minutes of incubation at 37° C., the reactions were initiated by the addition of 5 μl of 50 μM Na-ATP. After 1 h with shaking at 37° C., 150 μl of phosphate buffered saline (PBS) was added to the reaction and the plate centrifuged at 1500 rpm for 10 minutes. 5 μl of the reaction was then transferred to a 96 well opaque white plate containing 45 μl of PBS to allow the GSTp53N66 substrate to bind to the plate wells. The plate was covered and incubated at room temperature for 1 h with shaking before discarding the contents. The plate wells were washed twice by the addition of PBS prior to the addition of 3% (w/v) bovine serum albumin (BSA) in PBS. The plate was incubated at room temperature for 1 h with shaking before discarding the contents and washing twice with PBS. To the wells, 50 μl of a 1:10, 000 dilution of primary phosphoserine-15 antibody (Cell Signaling Technology, #9284L) in 3% BSA/PBS was added to detect the phosphorylation event on the serine 15 residue of p53 elicited by the ATM kinase. […] The wells were then washed four times with PBS before the addition of chemiluminescence reagent (NEN Renaissance, NEL105). The plate was then shaken briefly, covered with a transparent plate seal and transferred to a TopCount NXT for chemiluminescent counting. Counts per second, following a one second counting time, were recorded for each reaction. The inhibition of ATM activity by compounds was calculated as described above for the DNA-PK assay.
(§1) The selectivity was determined by the following equation: […]

For data set [2], the target named is T2, Baculoviral recombinant GST-fused PI 3-kinase (p110α/p85α) (Homo sapiens, UniProt P42336).
T2 construct: GST; made in house; host or cells: Sf9 insect cells (baculovirus)
The data set can be described thus: PI 3-kinase inhibition assay. Type of data set: biochemical. On the procedure:
In order to assess the inhibitory action of the compounds against PI 3-kinase in vitro, the following assay was used to determine IC50 values.
PI 3-kinase (1 μl) was diluted in reaction buffer (89 μl of 50 mM Hepes pH 7.5, 150 mM NaCl, 0.1 mM Sodium Orthovanadate, containing 20 μg of phosphatidylinositol) and varying concentrations of inhibitor compound added. […] Reactions were incubated for a further 20 minutes at 37° C., before quenching with the addition of 400 μl of chloroform/methanol (1:1). Reactions were acidified by the addition of 200 μl of 1M HCl, before separation of the organic and aqueous phases by centrifugation at 10,000 g for 30 seconds. The organic phase was transferred to a fresh tube and washed twice with 150 μl of 1M hydrochloric acid/methanol (1:1), discarding the aqueous phase. The washed reaction product was then placed in a white 96-well plate with 100 μl of scintillation fluid and transferred to a TopCount NXT for scintillation counting. Counts per minute, following a one minute counting time, were recorded for each reaction. The inhibition of PI 3-kinase activity by compounds was calculated as described above for the DNA-PK assay.
as §1

The target in data set [3] is T3, Mammalian DNA-PK, isolated from Hela cell nuclear extract (Homo sapiens, UniProt P78527).
T3 construct: Mammalian DNA-PK, isolated from Hela cell nuclear extract; endogenous in cells; host or cells: HeLa cell nuclear extract
The data set can be described thus: DNA-PK inhibition assay (33P-ATP, phosphocellulose filter, scintillation counting). Format: biochemical. Conditions: for inhibition at 1 µM: read-out: inhibition of DNA-PK at 1 μM; for inhibition at 2 µM: read-out: inhibition of DNA-PK at 2 μM, single concentration 2 μM. The protocol: In order to assess the inhibitory action of the compounds against DNA-PK in vitro, the following assay was used.
The total assay volume per well was 40 μl.
After 10 minutes of incubation at 30° C. the reactions were initiated by the addition of Na-ATP (50 μM final), ^33P-γATP and a 30mer double stranded DNA oligonucleotide (10 ng/μl) in a volume of 10 μl. Designated positive and negative reaction wells were done in combination with compound wells (unknowns) in order to calculate % enzyme activities. The plates were then shaken for 2 minutes and incubated at 30° C. for 45 minutes.
Following the incubation, the reactions were quenched by the addition of 50 μl 30% acetic acid to each well. The plates were then shaken for 5 minutes and the contents of each plate (80 μl from each well) transferred over to a 96 well Polyfiltronics filtration plate, containing P81-phosphocellulose membrane (TRADE MARK)(Whatman, UK). The solutions were vacuum pumped through the membrane and each well membrane washed four times using 300 μl of 15% acetic acid. The well membranes were then air dried and 20 μl of scintillant was added to each well.
The plates were transferred to a TopCount NXT (TRADE MARK) (Packard, UK) for scintillation counting. Values recorded are counts per minute (cpm) following a 1 minute counting time for each well.
The enzyme activity for each compound is then calculated using the following equation: […]
In Table 1 below, the results are IC50 values (the concentration at which 50% of the enzyme activity is inhibited). These are determined over a range of different concentrations, normally from 10 μM down to 0.01 μM. Such IC50 values are used as comparative values to identify increased compound potencies.

Data set [4] has as its system mammalian cells in culture. Conditions: literature; cited from earlier work.
Data set [5] addresses PI 3-kinase. Conditions: literature, stated the same as for DNA-PK; cited from earlier work.

T1 sequence (Q13315 whole entry): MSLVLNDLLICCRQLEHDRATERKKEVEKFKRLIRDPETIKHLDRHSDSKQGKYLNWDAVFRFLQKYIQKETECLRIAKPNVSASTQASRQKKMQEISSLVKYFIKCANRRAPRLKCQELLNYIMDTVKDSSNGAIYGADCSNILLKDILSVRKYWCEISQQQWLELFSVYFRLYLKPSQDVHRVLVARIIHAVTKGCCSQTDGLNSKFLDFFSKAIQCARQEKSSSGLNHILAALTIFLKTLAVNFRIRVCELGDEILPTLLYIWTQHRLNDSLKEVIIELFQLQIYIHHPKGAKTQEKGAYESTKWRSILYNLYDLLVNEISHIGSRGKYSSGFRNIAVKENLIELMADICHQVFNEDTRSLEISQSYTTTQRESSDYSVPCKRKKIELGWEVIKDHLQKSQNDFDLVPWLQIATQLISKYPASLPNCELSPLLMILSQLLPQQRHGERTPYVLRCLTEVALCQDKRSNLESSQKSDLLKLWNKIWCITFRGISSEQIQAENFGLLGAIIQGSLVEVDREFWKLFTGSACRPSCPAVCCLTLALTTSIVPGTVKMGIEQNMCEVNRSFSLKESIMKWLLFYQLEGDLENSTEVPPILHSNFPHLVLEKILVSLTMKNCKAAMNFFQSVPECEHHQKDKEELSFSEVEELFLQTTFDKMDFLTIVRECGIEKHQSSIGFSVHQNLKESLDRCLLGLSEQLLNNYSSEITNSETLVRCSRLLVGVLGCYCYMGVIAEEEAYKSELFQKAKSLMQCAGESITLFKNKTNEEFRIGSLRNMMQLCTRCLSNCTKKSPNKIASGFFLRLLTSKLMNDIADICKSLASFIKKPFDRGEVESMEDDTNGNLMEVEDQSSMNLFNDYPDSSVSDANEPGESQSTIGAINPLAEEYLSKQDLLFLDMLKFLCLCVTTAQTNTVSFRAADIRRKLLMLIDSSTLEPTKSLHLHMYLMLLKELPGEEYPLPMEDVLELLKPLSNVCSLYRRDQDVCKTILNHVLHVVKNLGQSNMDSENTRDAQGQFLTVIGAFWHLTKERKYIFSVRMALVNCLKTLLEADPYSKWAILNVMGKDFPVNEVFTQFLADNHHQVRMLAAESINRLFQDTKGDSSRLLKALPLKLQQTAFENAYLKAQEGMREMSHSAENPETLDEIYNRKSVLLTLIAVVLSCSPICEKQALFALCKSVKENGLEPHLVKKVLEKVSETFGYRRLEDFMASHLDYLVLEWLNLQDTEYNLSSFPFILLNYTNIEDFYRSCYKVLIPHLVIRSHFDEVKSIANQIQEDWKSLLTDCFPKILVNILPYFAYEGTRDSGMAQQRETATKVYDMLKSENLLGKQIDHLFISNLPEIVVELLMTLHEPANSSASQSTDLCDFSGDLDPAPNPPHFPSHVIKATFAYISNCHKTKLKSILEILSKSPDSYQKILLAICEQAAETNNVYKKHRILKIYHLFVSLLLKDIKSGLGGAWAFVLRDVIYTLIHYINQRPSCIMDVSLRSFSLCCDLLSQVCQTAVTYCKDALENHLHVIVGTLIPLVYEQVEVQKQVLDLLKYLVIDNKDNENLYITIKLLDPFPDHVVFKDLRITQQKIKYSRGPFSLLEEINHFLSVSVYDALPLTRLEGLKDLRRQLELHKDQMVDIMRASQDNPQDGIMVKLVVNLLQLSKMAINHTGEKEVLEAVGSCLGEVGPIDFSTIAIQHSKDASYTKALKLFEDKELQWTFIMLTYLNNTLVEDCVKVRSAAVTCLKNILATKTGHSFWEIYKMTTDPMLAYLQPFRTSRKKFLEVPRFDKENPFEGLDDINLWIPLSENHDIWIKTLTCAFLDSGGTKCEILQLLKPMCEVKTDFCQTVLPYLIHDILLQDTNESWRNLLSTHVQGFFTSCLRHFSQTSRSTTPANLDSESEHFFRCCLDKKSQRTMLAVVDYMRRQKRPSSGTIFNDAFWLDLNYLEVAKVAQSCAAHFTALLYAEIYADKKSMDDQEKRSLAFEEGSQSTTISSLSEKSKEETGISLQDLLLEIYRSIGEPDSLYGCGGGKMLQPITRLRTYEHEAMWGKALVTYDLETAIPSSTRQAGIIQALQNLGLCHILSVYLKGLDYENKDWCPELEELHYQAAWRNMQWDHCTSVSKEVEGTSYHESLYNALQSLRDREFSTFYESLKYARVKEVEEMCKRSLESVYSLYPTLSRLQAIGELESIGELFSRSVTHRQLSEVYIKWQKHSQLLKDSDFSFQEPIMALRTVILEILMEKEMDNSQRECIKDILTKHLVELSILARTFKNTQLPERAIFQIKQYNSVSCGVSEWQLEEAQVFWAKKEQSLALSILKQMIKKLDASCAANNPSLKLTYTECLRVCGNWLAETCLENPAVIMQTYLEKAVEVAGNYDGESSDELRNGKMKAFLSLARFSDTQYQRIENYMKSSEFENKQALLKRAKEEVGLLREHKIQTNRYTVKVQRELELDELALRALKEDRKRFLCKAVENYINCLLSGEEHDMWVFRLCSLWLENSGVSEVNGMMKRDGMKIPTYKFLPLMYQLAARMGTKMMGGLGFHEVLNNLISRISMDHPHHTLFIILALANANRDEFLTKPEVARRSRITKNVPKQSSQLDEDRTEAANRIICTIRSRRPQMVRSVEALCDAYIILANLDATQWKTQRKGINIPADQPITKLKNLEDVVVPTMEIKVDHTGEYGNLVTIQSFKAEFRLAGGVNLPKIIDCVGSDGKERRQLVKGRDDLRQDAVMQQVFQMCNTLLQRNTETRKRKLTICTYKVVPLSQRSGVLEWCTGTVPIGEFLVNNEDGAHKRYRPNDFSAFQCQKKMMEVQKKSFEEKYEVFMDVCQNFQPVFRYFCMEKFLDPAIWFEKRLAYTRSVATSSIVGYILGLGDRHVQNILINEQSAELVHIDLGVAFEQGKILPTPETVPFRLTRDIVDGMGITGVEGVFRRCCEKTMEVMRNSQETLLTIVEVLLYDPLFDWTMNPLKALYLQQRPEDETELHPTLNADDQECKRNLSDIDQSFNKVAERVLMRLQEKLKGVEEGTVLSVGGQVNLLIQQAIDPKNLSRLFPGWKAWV
T2 sequence (P42336 whole entry, species assumed, the tested form may be a part): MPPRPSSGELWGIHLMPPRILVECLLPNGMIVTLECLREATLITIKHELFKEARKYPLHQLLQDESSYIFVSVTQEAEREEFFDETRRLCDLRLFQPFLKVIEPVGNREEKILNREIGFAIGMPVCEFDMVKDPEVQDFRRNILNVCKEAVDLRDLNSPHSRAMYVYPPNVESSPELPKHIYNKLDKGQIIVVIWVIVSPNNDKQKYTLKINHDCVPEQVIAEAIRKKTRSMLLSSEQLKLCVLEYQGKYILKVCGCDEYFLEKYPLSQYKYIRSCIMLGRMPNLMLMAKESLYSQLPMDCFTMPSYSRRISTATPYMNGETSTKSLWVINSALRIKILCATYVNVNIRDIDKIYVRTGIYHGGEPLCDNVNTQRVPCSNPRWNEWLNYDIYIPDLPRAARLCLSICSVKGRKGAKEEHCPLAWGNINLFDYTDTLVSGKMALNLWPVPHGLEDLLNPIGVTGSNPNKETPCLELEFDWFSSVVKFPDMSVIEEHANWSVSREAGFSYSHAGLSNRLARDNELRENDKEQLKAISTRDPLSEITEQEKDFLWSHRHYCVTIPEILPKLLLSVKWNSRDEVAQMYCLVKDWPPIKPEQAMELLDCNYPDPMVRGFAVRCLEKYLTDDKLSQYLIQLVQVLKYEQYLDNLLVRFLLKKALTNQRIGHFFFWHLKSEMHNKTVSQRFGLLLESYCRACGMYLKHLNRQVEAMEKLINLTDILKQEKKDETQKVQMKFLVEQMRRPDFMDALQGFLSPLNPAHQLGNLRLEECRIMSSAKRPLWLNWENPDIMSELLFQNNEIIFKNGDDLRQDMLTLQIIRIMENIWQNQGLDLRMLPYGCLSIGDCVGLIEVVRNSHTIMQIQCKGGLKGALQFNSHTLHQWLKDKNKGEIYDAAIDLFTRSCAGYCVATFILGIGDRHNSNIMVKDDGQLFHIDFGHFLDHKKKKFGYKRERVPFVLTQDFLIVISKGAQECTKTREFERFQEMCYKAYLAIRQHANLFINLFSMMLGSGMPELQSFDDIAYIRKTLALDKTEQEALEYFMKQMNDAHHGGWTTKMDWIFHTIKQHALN
T2 sequence (P27986 whole entry partner, species assumed, the tested form may be a part): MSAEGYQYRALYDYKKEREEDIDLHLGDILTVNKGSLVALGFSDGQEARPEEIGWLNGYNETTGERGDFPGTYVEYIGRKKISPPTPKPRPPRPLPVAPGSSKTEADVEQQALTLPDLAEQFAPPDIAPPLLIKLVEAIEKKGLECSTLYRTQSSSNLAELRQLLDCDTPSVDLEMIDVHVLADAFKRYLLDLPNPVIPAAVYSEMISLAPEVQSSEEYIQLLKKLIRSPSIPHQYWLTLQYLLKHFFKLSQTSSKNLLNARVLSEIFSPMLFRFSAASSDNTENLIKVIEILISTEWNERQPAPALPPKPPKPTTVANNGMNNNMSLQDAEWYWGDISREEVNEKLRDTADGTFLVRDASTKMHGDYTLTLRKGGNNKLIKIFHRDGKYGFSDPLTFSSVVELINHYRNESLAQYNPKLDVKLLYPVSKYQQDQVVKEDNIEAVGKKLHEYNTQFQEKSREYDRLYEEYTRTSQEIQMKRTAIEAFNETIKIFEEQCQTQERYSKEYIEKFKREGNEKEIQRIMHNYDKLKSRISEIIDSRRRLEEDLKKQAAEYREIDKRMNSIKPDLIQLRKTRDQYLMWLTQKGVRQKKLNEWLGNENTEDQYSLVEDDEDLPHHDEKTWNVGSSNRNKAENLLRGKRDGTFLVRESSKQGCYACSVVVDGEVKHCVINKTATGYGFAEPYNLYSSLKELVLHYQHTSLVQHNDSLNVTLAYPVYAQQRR

Broadly, the pIC50 is −log10 of the IC50, conventionally taken in molar units. In general, melting point refers to the temperature, or range, at which the solid turns liquid. Compound `O=c1cc(-c2ccccc2)sc(N2CCOCC2)c1` [Compound 1, 2-Morpholin-4-yl-6-phenyl-thiopyran-4-one] showed a melting point of 160 to 161 °C. The negative-log IC50 (pIC50) in data set [1] was less than 4.00. Moreover, the pIC50 in data set [2] was 5.00.

Turning to `CC(C)(C)c1ccc(-c2cc(=O)cc(N3CCOCC3)s2)cc1` [Compound 2, 2-(4-tert-Butyl-phenyl)-6-morpholin-4-yl-thiopyran-4-one], the melting point was in the range of 172 to 173 °C. The pIC50 in data set [1] is less than 4.00. In addition, in data set [2], the pIC50 was 4.40.

Consider `COc1ccc(-c2cc(=O)cc(N3CCOCC3)s2)cc1` [Compound 3, 2-(4-Methoxy-phenyl)-6-morpholin-4-yl-thiopyran-4-one], for which the pIC50 in data set [1] was less than 4.00; in data set [2], 5.10.

Take `O=c1cc(-c2ccc(Cl)cc2)sc(N2CCOCC2)c1` [Compound 4, 2-(4—Chloro-phenyl)-6-morpholin-4-yl-thiopyran-4-one]: the figures for the pIC50 in data set [1] and in data set [2] were less than 4.00 and 5.30, respectively.

Consider `O=c1cc(-c2ccc(Br)cc2)sc(N2CCOCC2)c1` [Compound 5, 6-(4-Broinophenyl)-2-morpholin-4-yl-thiopyran-4-one], for which the melting point lay within 214 to 215 °C.

`O=c1cc(-c2cccc(Br)c2)sc(N2CCOCC2)c1` [Compound 6, 6-(3-Bromophenyl)-2-morpholin-4-yl-thiopyran-4-one] displayed a melting point of 181 to 182 °C.

By inhibition is commonly meant the drop in the measured response relative to a control, in per cent. Turning to `O=c1cc(-c2ccc(-c3cccc(O)c3)cc2)sc(N2CCOCC2)c1` [Compound 14], in data set [3], the negative logarithm of the IC50 (pIC50) was no less than 5.70 and the inhibition at 2 µM is no less than 50%. Also, the inhibition at 1 µM in data set [3] (single concentration 1 μM) is no less than 10%.

Consider `O=c1cc(-c2cccc(-c3ccccc3-c3ccccc3)c2)sc(N2CCOCC2)c1` [Compound 30], for which, in data set [3], the pIC50 is no less than 5.70, the inhibition at 1 µM was no less than 10% and the inhibition at 2 µM was no less than 50%.

On to `CC(=O)Nc1cccc(-c2cccc(-c3cc(=O)cc(N4CCOCC4)s3)c2)c1` [Compound 31], for which the inhibition at 1 µM in data set [3] (single concentration 1 μM) is no less than 10%. Further, in data set [3], the inhibition at 2 µM was no less than 50%.

On to `CC(=O)c1cccc(-c2cccc(-c3cc(=O)cc(N4CCOCC4)s3)c2)c1` [Compound 33], for which, in data set [3], the negative-log IC50 (pIC50) is no less than 5.70, the inhibition at 1 µM was no less than 10% and the inhibition at 2 µM is no less than 50%.

With `O=c1cc(-c2cccc(-c3cccc(-c4ccccc4)c3)c2)sc(N2CCOCC2)c1` [Compound 35], in data set [3], the pIC50 is no less than 5.70, the inhibition at 1 µM is no less than 10% and the inhibition at 2 µM was no less than 50%.

In the case of `O=c1cc(-c2cccc(-c3cccc(CO)c3)c2)sc(N2CCOCC2)c1` [Compound 40], in data set [3], the pIC50 is no less than 5.70, the inhibition at 1 µM was no less than 10% and the inhibition at 2 µM is no less than 50%.

Regarding `O=c1cc(-c2cccc(-c3ccc(CO)cc3)c2)sc(N2CCOCC2)c1` [Compound 41], in data set [3], the pIC50 was no less than 5.70, the inhibition at 1 µM was no less than 10% and the inhibition at 2 µM is no less than 50%.

On to `O=c1cc(-c2cccc(-c3cccc(O)c3)c2)sc(N2CCOCC2)c1` [Compound 42], for which the inhibition at 1 µM in data set [3] (single concentration 1 μM) is no less than 10%. In addition, the inhibition at 2 µM in data set [3] is no less than 50%.

For `O=c1cc(-c2cccc(-c3ccc(O)cc3)c2)sc(N2CCOCC2)c1` [Compound 43], in data set [3], the negative logarithm of the IC50 (pIC50) is no less than 5.70 and the inhibition at 2 µM is no less than 50%. Also, the inhibition at 1 µM in data set [3] (single concentration 1 μM) was no less than 10%.

In the case of `NCc1ccc(-c2cccc(-c3cc(=O)cc(N4CCOCC4)s3)c2)cc1` [Compound 46], in data set [3], the negative logarithm of the IC50 (pIC50) was no less than 5.70, the inhibition at 1 µM was no less than 10% and the inhibition at 2 µM was no less than 50%.

With `Nc1ccc(-c2cccc(-c3cc(=O)cc(N4CCOCC4)s3)c2)cc1` [Compound 48], in data set [3], the pIC50 is no less than 5.70 and the inhibition at 2 µM was no less than 50%. In addition, in data set [3] (single concentration 1 μM), the inhibition at 1 µM is no less than 10%.

In the case of `Nc1cccc(-c2cccc(-c3cc(=O)cc(N4CCOCC4)s3)c2)c1` [Compound 49], in data set [3], the negative logarithm of the IC50 (pIC50) was no less than 5.70 and the inhibition at 2 µM was no less than 50%. Besides, the inhibition at 1 µM in data set [3] (single concentration 1 μM) was no less than 10%.

Regarding `CC(=O)Nc1ccccc1-c1cccc(-c2cc(=O)cc(N3CCOCC3)s2)c1` [Compound 51], in data set [3], the pIC50 was no less than 5.70 and the inhibition at 2 µM was no less than 50%. The inhibition at 1 µM in data set [3] (single concentration 1 μM) was no less than 10%.

Take `O=c1cc(-c2ccc(-c3cccs3)cc2)sc(N2CCOCC2)c1` [Compound 57]: in data set [3], the negative logarithm of the IC50 (pIC50) was no less than 5.70 and the inhibition at 2 µM was no less than 50%. Moreover, the inhibition at 1 µM in data set [3] (single concentration 1 μM) was no less than 10%.

`O=c1cc(-c2ccc(-c3cccc4ccccc34)cc2)sc(N2CCOCC2)c1` [Compound 59]: the inhibition at 1 µM in data set [3] (single concentration 1 μM) was no less than 10%. Also, the inhibition at 2 µM in data set [3] is no less than 50%.

As for `Cc1ccc(-c2cccc(-c3cc(=O)cc(N4CCOCC4)s3)c2)c2ccccc12` [Compound 63], in data set [3], the negative-log IC50 (pIC50) is no less than 5.70 and the inhibition at 2 µM was no less than 50%. In data set [3] (single concentration 1 μM), the inhibition at 1 µM was no less than 10%.

As to `O=c1cc(-c2cccc(-c3csc4ccccc34)c2)sc(N2CCOCC2)c1` [Compound 64], in data set [3], the pIC50 was no less than 5.70 and the inhibition at 2 µM was no less than 50%. Besides, in data set [3] (single concentration 1 μM), the inhibition at 1 µM was no less than 10%.

With `O=c1cc(-c2cccc(-c3cccc4ccccc34)c2)sc(N2CCOCC2)c1` [Compound 69], in data set [3], the pIC50 is no less than 5.70 and the inhibition at 2 µM was no less than 50%. In data set [3] (single concentration 1 μM), the inhibition at 1 µM is no less than 10%.

For the compound `O=Cc1sccc1-c1cccc(-c2cc(=O)cc(N3CCOCC3)s2)c1` [Compound 70], in data set [3], the pIC50 is no less than 5.70 and the inhibition at 2 µM is no less than 50%. The inhibition at 1 µM in data set [3] (single concentration 1 μM) is no less than 10%.

Turning to `O=c1cc(N2CCOCC2)oc2c(-c3ccccc3)cccc12` [LY294002, reference compound], the figures for the negative-log IC50 (pIC50) in data set [1], in data set [3] and in data set [5] were less than 4.00, 5.82 and roughly 6.00, respectively. For the same compound, in data set [4], the “sensitisation of cells to the effects of IR” value is on record as “weakly sensitise cells to the effects of IR”.
